Results taken from US11312727B1, “Macrocyclic flu endonuclease inhibitors” (Janssen BioPharma, Inc., priority 2018, dated 2022).

Tested on: Influenza strain A549 A/WSN/33 (H1N1)
Test: microbe, parasite or virus in culture
Assay type: cell-based
Details: Influenza A virus, A549, 20 h, A549 cells, influenza A/WSN/33 (H1N1), 20 hours incubation; read-out: A549_A(H1N1) EC50

Compound | EC50
O=C1c2c(O)c(=O)ccn2N2CN1C/C=C\COc1c(F)cccc1[C@H]2c1cccc(F)c1 (single isomer, unassigned) [Compound 59A, (18*R,Z)-4-fluoro-18-(3-fluorophenyl)-12-hydroxy-6,9-dihydro-18H-10,17-methanobenzo[b]pyrido[1,2-f][1]oxa[5,6,9]triazacyclotridecine-11,13-dione] | 5 nM
CC[C@H]1/C=C/COc2c(ccc(F)c2F)[C@@H](c2ccccc2C)N2CN1C(=O)c1c(O)c(=O)ccn12 (single isomer, unassigned) [Compound 167AA, (9*S,18*R,E)-9-ethyl-3,4-difluoro-12-hydroxy-18-(o-tolyl)-6,9-dihydro-18H-10,17-methanobenzo[b]pyrido[1,2-f][1]oxa[5,6,9]triazacyclotridecine-11,13-dione] | 0.91 nM
CC[C@@H]1/C=C/COc2c(ccc(F)c2F)[C@@H](c2ccccc2C)N2CN1C(=O)c1c(O)c(=O)ccn12 (single isomer, unassigned) [Compound 167AB, (9*R,18*R,E)-9-ethyl-3,4-difluoro-12-hydroxy-18-(o-tolyl)-6,9-dihydro-18H-10,17-methanobenzo[b]pyrido[1,2-f][1]oxa[5,6,9]triazacyclotridecine-11,13-dione] | 0.96 nM
CC[C@H]1/C=C/COc2c(ccc(F)c2F)[C@H](c2ccccc2C)N2CN1C(=O)c1c(O)c(=O)ccn12 (single isomer, unassigned) [Compound 167BA, (9*S,18*S,E)-9-ethyl-3,4-difluoro-12-hydroxy-18-(o-tolyl)-6,9-dihydro-18H-10,17-methanobenzo[b]pyrido[1,2-f][1]oxa[5,6,9]triazacyclotridecine-11,13-dione] | > 50 nM
CC[C@@H]1/C=C/COc2c(ccc(F)c2F)[C@H](c2ccccc2C)N2CN1C(=O)c1c(O)c(=O)ccn12 (single isomer, unassigned) [Compound 167BB, (9*R,18*S,E)-9-ethyl-3,4-difluoro-12-hydroxy-18-(o-tolyl)-6,9-dihydro-18H-10,17-methanobenzo[b]pyrido[1,2-f][1]oxa[5,6,9]triazacyclotridecine-11,13-dione] | > 50 nM
O=C1c2c(O)c(=O)ccn2N2CN1C1(/C=C/COc3cc(F)c(F)c4c3[C@H]2c2ncccc2SC4)CCC1 (single isomer, unassigned) [Compound 168B, (21a′*S,*E)-24′,25′-difluoro-16′-hydroxy-6′,21a′-dihydro-10′H-spiro[cyclobutane-1,13′-[7,8](epiprop[1]en[1]yl[3]ylidene)[14,21]methanopyrido[1,2-f]pyrido[2′,3′:6,7]thiepino[4,5-c][1]oxa[5,6,9]triazacyclotridecine]-15′,17′-dione] | 0.6 nM
CC(C)[C@H]1/C=C/COc2cc(F)c(F)c3c2[C@H](c2ccccc2SC3)N2CN1C(=O)c1c(O)c(=O)ccn12 (single isomer, unassigned) [Compound 169BA, (9*S,17a*R,*E)-24,25-difluoro-12-hydroxy-9-isopropyl-2,6,9,17a-tetrahydro-3,4-(epiprop[1]en[1]yl[3]ylidene)-10,17-methanobenzo[6,7]thiepino[4,5-c]pyrido[1,2-f][1]oxa[5,6,9]triazacyclotridecine-11,13-dione] | 0.83 nM
CC[C@H]1/C=C/COc2c(ccc(Cl)c2F)[C@@H](c2ccccc2)N2CN1C(=O)c1c(O)c(=O)ccn12 (single isomer, unassigned) [Compound 170BA, (9*S,18*R,E)-3-chloro-9-ethyl-4-fluoro-12-hydroxy-18-phenyl-6,9-dihydro-18H-10,17-methanobenzo[b]pyrido[1,2-f][1]oxa[5,6,9]triazacyclotridecine-11,13-dione] | 24 nM
CC[C@@H]1/C=C/COc2c(ccc(Cl)c2F)[C@@H](c2ccccc2)N2CN1C(=O)c1c(O)c(=O)ccn12 (single isomer, unassigned) [Compound 170BB, (9*R,18*R,E)-3-chloro-9-ethyl-4-fluoro-12-hydroxy-18-phenyl-6,9-dihydro-18H-10,17-methanobenzo[b]pyrido[1,2-f][1]oxa[5,6,9]triazacyclotridecine-11,13-dione] | 2 nM
